Patent US7112589B2, “Cysteine protease inhibitors with 2-cyano-4-amino-pyrimidine structure and cathepsin k inhibitory activity for the treatment of inflammations and other diseases” (Novartis AG, priority 2001, dated 2006)

Biological target: T1, recombinant human cathepsin K (Homo sapiens, UniProt P43235)
T1 sequence (P43235 115-329): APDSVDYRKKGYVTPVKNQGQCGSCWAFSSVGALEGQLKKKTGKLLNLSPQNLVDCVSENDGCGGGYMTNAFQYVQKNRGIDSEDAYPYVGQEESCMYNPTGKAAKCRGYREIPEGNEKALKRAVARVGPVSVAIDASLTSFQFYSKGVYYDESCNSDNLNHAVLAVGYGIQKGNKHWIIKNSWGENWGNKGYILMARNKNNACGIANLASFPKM
Experiment: in vitro inhibition of recombinant human cathepsin K (Z-Phe-Arg-AMCA fluorescence assay)
Assay type: biochemical
Conditions: recombinant human cathepsin K 0.16 nM, Z-Phe-Arg-AMCA substrate, pH 7.0, 30 min preincubation, 30 min incubation; read-out: IC50s for inhibition of human cathepsin K
Protocol: The in vitro assay is carried out as follows:
The assay is performed in 96 well microtiter plates at ambient temperature using recombinant human cathepsin K. Inhibition of cathepsin K is assayed at a constant enzyme (0.16 nM) and substrate concentration ([…] Z-Phe-Arg-AMCA-Peptide Institute Inc. Osaka, Japan) in 100 mM sodium phosphate buffer, pH 7.0, containing 2 mM dithiothreitol, 20 mM Tween 80 and 1 mM EDTA. Cathepsin K is preincubated with the inhibitors for 30 min, and the reaction is initiated by the addition of substrate. After 30 min incubation the reaction is stopped by the addition of E-64 (2 mM), and fluorescence intensity is read on a multi-well plate reader at excitation and emission wavelengths of 360 and 460 nm, respectively.

| Structure (SMILES) | IC50 [nM] |
| --- | --- |
| COCCN1CCC(Cc2ccc(C(=O)NCc3cnc(C#N)nc3NCC(C)(C)C)cc2)CC1 [Example I-23, N-[2-Cyano-4-(2,2-dimethyl-propylamino)-pyrimidin-5-ylmethyl]-4-[1-(2-methoxy-ethyl)-piperidin-4-ylmethyl]-benzamide] | 1.5 |
| CN1CCN(Cc2ccc(C(=O)NCc3cnc(C#N)nc3NCC(C)(C)C)cc2)CC1 [Example I-22, N-[2-Cyano-4-(2,2-dimethyl-propylamino)-pyrimidin-5-ylmethyl]-4-(4-methyl-piperazin-1-ylmethyl)-benzamide] | 3 |
